Test results taken from ChEMBL document CHEMBL1137807, “A novel dimeric diterpene from Salvia prionitis” (J Nat Prod, 2001).
The source made the active and inactive calls. The calls are words filed in the database; no cut-off is given here.

How the values were obtained:
HL-60 = test: Antitumor activity against human HL60 cells; format: functional, cell-based
Bel-7402 = test: Antitumor activity against human Bel7402 cells; format: functional, cell-based

Row | Compound | Activity (HL-60) | Activity (Bel-7402)
1 | CC(C)c1cc2c(c(O)c1O)[C@@]1(C)CCCC(C)(C)C1=CC2=O | Active | Active
2 | CC(C)C1=CC2=C[C@H]3Oc4c(c(C(C)C)cc5c4[C@]4(C)CCCC(C)(C)C4=CC5=O)O[C@]34C(C)(C)CCC[C@@]4(C)C2=C(O)C1=O | inactive | inactive
